Experimental data taken from patent US20180185374A1, “INHIBITORS OF MTOR KINASE AS ANTI-VIRAL AGENTS” (THE TRUSTEES OF PRINCETON UNIVERSITY, priority 2009, published 2018).
Entries after “also recorded” stand apart in the source; their conditions may differ.

Key:
[1] = test system: HCMV; assay: HCMV multistep growth in serum-starved human fibroblasts, cell-free virus by TCID50; assay type: cell-based, human cytomegalovirus; details: day 10; 0.05 PFU/cell; rapamycin 20 nM, Torin1 250 nM
[2] = test system: MCMV; assay: MCMV replication in MEFs, cell-free virus by TCID50; assay type: cell-based, murine cytomegalovirus; details: wild-type MEFs; 0.05 PFU/cell; rapamycin 20 nM, Torin1 250 nM
[3] = test system: HCMV strain AD169; assay: HCMV AD169 replication in human fibroblasts treated with 4-PBA, TCID50; assay type: cell-based, human cytomegalovirus; details: 0.1 pfu/cell; day 8 post infection; range of 4-PBA doses
Source text: FIG. 10. 4-PBA inhibits HCMV replication in a dose-dependent manner. […] The medium with drug was replaced every other day. Cell-free and cell-associated virus was collected on day 8 post infection and titered by the TCID50 method. Data represent the log mean titer of duplicate samples.
To explore the hypothesis that HCMV might actually require the UPR to occur in order to maintain cellular homeostasis despite high levels of expression of viral glycoproteins, HCMV-infected human fibroblasts (HFFs) were treated with an inhibitor of the UPR, the chemical chaperone sodium 4-phenylbutyrate (4-PBA).

[4] = test system: human fibroblasts; assay: trypan blue exclusion viability of confluent human fibroblasts treated with 4-PBA; assay type: cell-based; details: 8 days; up to highest dose tested
Procedure: (§1) FIG. 11. 4-PBA is not toxic to uninfected or infected confluent human fibroblasts. (A) Fibroblasts were maintained in medium containing the indicated concentrations of 4-PBA for 8 days. The medium was replaced every other day throughout the time course. At the end of the treatment period, cell viability was measured by the trypan blue exclusion assay. Date points represent the mean of duplicate wells. (B) Fibroblasts were infected with HCMV at a multiplicity of 0.1 pfu/cell. Cells were fed every other day with fresh medium containing the indicated concentration of 4-PBA. At eight days post infection, cells were washed once with media, and then media lacking drug was added. Eight days later (16 days post infection) cell free virus in the supernatant was quantitated by the TCID50 method. Date points represent the mean of duplicate wells.
(§2) Two experiments were performed to rule out the possibility that 4-PBA is simply toxic to the cells and inhibits HCMV indirectly by reducing cell viability (FIG. 11). In the first experiment (FIG. 11A) an assay for cell viability was performed on confluent human fibroblasts treated for eight days with different concentrations of the drug. […] Then the drug was removed and the yield of virus was determined 8 days later.

[5] = test system: HCMV; assay: 4-PBA reversibility: HCMV yield 8 days after drug removal, TCID50; assay type: cell-based, human cytomegalovirus; details: all doses tested; 8-day treatment; 16 days post infection
Procedure: as §1, §2

[6] = biological target: mTOR (Homo sapiens, UniProt P42345); details: read-out: IC50 of selective mTOR inhibitor; cited from earlier work
[7] = test system: PI3Ks; details: cited from earlier work
[8] = test system: panel of 140 protein kinases; details: read-out: IC50 against panel of 140 protein kinases; cited from earlier work

CO[C@H]1C[C@@H]2CC[C@@H](C)[C@@](O)(O2)C(=O)C(=O)N2CCCC[C@H]2C(=O)O[C@H]([C@H](C)C[C@@H]2CC[C@@H](O)[C@H](OC)C2)CC(=O)[C@H](C)/C=C(\C)[C@@H](O)[C@@H](OC)C(=O)[C@H](C)C[C@H](C)/C=C/C=C/C=C/1C [rapamycin]
reduction of HCMV yield [1]: ~8 fold
MCMV replication [2]: no inhibitory effect

O=C([O-])CCCc1ccccc1.[Na+] [4-PBA, sodium 4-phenylbutyrate]
HCMV replication / virus production [3]: effectively inhibited virus replication in a dose-dependent manner; also recorded: inhibited virus production in a dose-dependent manner
cellular viability / toxicity, trypan blue exclusion [4]: no effect on cellular viability; also recorded: not toxic
virus yield 8 days after drug removal [5]: recovered and produced a normal yield

CNC(=O)Nc1ccc(-c2nc(N3CC4CCC(C3)O4)c3cnn(C4CCC5(CC4)OCCO5)c3n2)cc1 [WYE-125132]
IC50 [6]: 0.19 nM
fold selective versus PI3Ks (PI3K) [7]: > 5,000 fold

Cc1c(C(=O)N2CCOc3ccc(-c4ccc(N)nc4)cc3C2)ccc(S(C)(=O)=O)c1F [XL388]
IC50 [8]: > 3000 nM

O=C(Nc1ccc(-c2nc(N3CC4CCC(C3)O4)c3sccc3n2)cc1)NC1CC1 [Wyeth-BMCL-200910075-9b]
IC50 [6]: 0.7 nM
fold selective versus PI3Ks (PI3K) [7]: > 1,000 fold

COC(=O)Nc1ccc(-c2nc(N3CCOCC3)c3cnn(C4CCN(C(=O)OC)CC4)c3n2)cc1 [WYE354]
IC50 [6]: 5 nM
